# Test results reported in US6642258B1, “Use of central cannabinoid receptor antagonist for preparing medicines” (Sanofi-Synthelabo, priority 1999, dated 2003).
# What was measured:
# [1] = system: experimental allergic encephalitis (EAE) in SjL/j mice; experiment: Experimental allergic encephalitis (EAE) induced in SjL/j mice by subcutaneous PLP (fragment 139-151) in FCA plus Bordetella pertussis; type: in vivo; conditions: administered orally or intraperitoneally from day zero of induction
# [2] = system: experimental allergic encephalitis (EAE) in Lewis rats; experiment: Experimental allergic encephalitis (EAE) induced in Lewis rats by intraplantar MBP (fragment 68-84) in FCA; type: in vivo; conditions: administered orally or intraperitoneally from day zero of induction
smiles,measurement,setting,value
"Cc1c(C(=O)NN2CCCCC2)nn(-c2ccc(Cl)cc2Cl)c1-c1ccc(Cl)cc1 [compound A, N-Piperidino-5-(4-chlorophenyl)-1-(2,4-dichlorophenyl)-4-methylpyrazole-3-carboxamide]",severity of the condition (paralysis of the hind quarters),[1],statistically smaller
same,weight loss of the animals,[1]; compared with vehicle alone,significantly smaller
same,severity of the condition (paralysis of the hind quarters),[2],statistically smaller
same,weight loss of the animals,[2]; compared with vehicle alone,significantly smaller
